Test: Solubility in cocoa butter/lecithin mixtures
Format: physicochemical
Settings: oil or lipid

solubility: < 15 mg/mL
Structure (SMILES): Cc1ccccc1-c1cc(N2CCOCC2)ncc1N(C)C(=O)C(C)(C)c1cc(C(F)(F)F)cc(C(F)(F)F)c1 [2-(3,5-bis-trifluoromethyl-phenyl)-N-methyl-N-(6-morpholin-4-yl-4-o-tolyl-pyridin-3-yl)-isobutyramide]
